Test results published in US20170327536A1, “NEUROTOXIC TARGET FOR AMYLOSPHEROID, METHOD AND MATERIAL FOR REDUCING THE NEUROTOXICITY OF AMYLOSPHEROID, AND USE THEREOF” (TAO Health Life Pharma Co., Ltd., priority 2011, published 2017).

Tests used:
[1] = system: mature rat hippocampus-derived primary cultured neurons; assay: Inhibition effect of AAT peptides on ASPD apoptotic activity (neutralization); assay type: cell-based; conditions: 4 μM synthetic ASPD, 24 hours; for inhibition effect on ASPD apoptotic activity compared with AAT01: 0.14 μM peptide, FIG. 19
Experimental: Based on the fact that anti-ASPD antibodies bind to ASPD to inhibit interaction between ASPD and NAKα3 that is a target molecule to suppress death of neurons, a peptide having similar effect was searched. For this purpose, ASPD immobilized to a microtiter plate was screened through use of (commercially available) phage display library in which a library of random 12 amino acids was expressed on a virus surface, and a converged sequence was analyzed. […] A peptide having neutralization activity was named as an Anti-AD toxicity (AAT) peptide.
The apoptotic activity was measured 24 hours later and compared with that of a control to which the AAT peptide has not been administered, whereby the inhibition activity was calculated.

ASPD = ASPD (Homo sapiens, UniProt P05067); assay: Surface plasmon resonance (SPR), biotinylated AAT peptide on chip, ASPD as ligand; assay type: binding; conditions: peptide solid phase on chip
Sequence of ASPD (P05067 672-713 limits assumed): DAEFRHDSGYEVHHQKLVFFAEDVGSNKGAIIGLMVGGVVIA
Excerpt: Biotin was bound to each C-terminal side of the above-mentioned AAT peptides 01 to […] and made into a solid phase on a chip, and a dissociation constant was obtained by surface plasmon resonance (SPR) using ASPD as a ligand.

[2] = target: T1, 105 kDa band (Na+/K+-ATPase α3) (Rattus norvegicus, UniProt P06687); assay: Far-western blotting of cell extracts; assay type: binding; conditions: extracts of neurons and HEK293 cells; detection with haASD1 (ASPD) or 6E10 (Aβ monomer)
T1 construct: endogenous in cells; host or cells: rat hippocampus-derived primary cultured neurons (mature)
Experimental: Extracts were prepared with RadioImmunoPrecipitation Assay (RIPA) respectively from the rat hippocampus-derived primary cultured neurons (number of culture days shown in FIG. 4) and the HEK293 cells, and protein amounts of the extracts were determined. Then, predetermined amounts of the extracts were subjected to electrophoresis with SDS-PAGE and transcribed to a nitrocellulose membrane, and reacted with native ASPD or an Aβ monomer for a predetermined period of time. The binding of the native ASPD was detected with anti-ASPD antibodies haASD1, and the binding of the Aβ monomer was detected with 6E10 that was commercially available anti-Aβ monomer antibodies (far-western blotting).
Thus, the synthetic ASPD is considered to be equivalent to the native ASPD, and after that, analysis was carried out using the synthetic ASPD.

Molecule | ka (ASPD) | kd (ASPD) | also measured
HFNWD (ASPD-interacting motif/peptide) [AAT04] |  |  | inhibition effect on ASPD apoptotic activity compared with AAT01 [1]: equal to or more than that of the AAT01
CC(C)C[C@H](NC(=O)[C@H](Cc1c[nH]c2ccccc12)NC(=O)[C@H](CC(N)=O)NC(=O)[C@H](CC(C)C)NC(=O)[C@@H](N)Cc1c[nH]cn1)C(=O)N[C@@H](CO)C(=O)N[C@@H](Cc1c[nH]c2ccccc12)C(=O)N[C@@H](Cc1ccccc1)C(=O)N1CCC[C@H]1C(=O)N[C@@H](CO)C(=O)N[C@@H](CCCNC(=N)N)C(=O)N[C@@H](Cc1c[nH]cn1)C(=O)N[C@@H](CCCCNC(=O)CCCC[C@@H]1SC[C@@H]2NC(=O)N[C@@H]21)C(N)=O [C-terminal biotinylated AAT03] | 4.96 × 10^3 | 4.39 × 10^-4 | 
CC(C)C[C@H](NC(=O)[C@H](CC(N)=O)NC(=O)[C@H](Cc1ccc(O)cc1)NC(=O)[C@H](Cc1c[nH]c2ccccc12)NC(=O)[C@H](CC(N)=O)NC(=O)[C@H](Cc1ccccc1)NC(=O)[C@@H](N)Cc1c[nH]cn1)C(=O)N[C@@H](Cc1c[nH]c2ccccc12)C(=O)N[C@@H](CCCNC(=N)N)C(=O)N[C@H](C(=O)N[C@@H](CCC(N)=O)C(=O)N[C@@H](Cc1ccc(O)cc1)C(=O)N[C@@H](CCCCNC(=O)CCCC[C@@H]1SC[C@@H]2NC(=O)N[C@@H]21)C(N)=O)C(C)C [C-terminal biotinylated AAT01] | 7.64 × 10^3 | 4.41 × 10^-4 | 
Aβ monomer: peptide cleaved from amyloid precursor protein (APP) with β- and γ-secretase |  |  | binding to 105 kDa band in far-western blotting [2]: did not bind to the band
HFNW (ASPD-interacting motif/peptide) [AAT06] |  |  | inhibition effect on ASPD apoptotic activity compared with AAT04 ([1]; 2.8 μM peptide, FIG. 20): equal to or higher than that of the AAT04
CC(C)C[C@H](NC(=O)[C@@H](N)Cc1c[nH]cn1)C(=O)N[C@@H](CC(N)=O)C(=O)N[C@@H](Cc1c[nH]c2ccccc12)C(=O)N[C@@H](Cc1c[nH]c2ccccc12)C(=O)N[C@@H](Cc1c[nH]cn1)C(=O)N[C@@H](CO)C(=O)N[C@@H](Cc1c[nH]c2ccccc12)C(=O)N[C@@H](Cc1ccc(O)cc1)C(=O)N1CCC[C@H]1C(=O)N[C@@H](C)C(=O)N[C@@H](CCCNC(=N)N)C(=O)N[C@@H](CCCCNC(=O)CCCC[C@@H]1SC[C@@H]2NC(=O)N[C@@H]21)C(N)=O [C-terminal biotinylated AAT02] | 5.60 × 10^3 | 4.62 × 10^-4 | 
HFNWDW (ASPD-interacting motif/peptide) [AAT05] |  |  | inhibition effect on ASPD apoptotic activity compared with AAT01 [1]: equal to or more than that of the AAT01
